Measured values published in patent US20230159496A1, “COMPOUNDS AND METHODS FOR MODULATING SPLICING” (REMIX THERAPEUTICS INC., priority 2020, published 2023).
Counter-ions that a name gives are not always drawn. Like-named read-outs stand apart in the source and are kept apart here.

Legend:
Assay type in all cases: cell-based
HTT mRNA = assay: Splicing assay (RT-qPCR) monitoring HTT canonical junction (CJ) and alternative junction (AJ) mRNA isoforms; details: A673 or K562 cells, 24 h treatment, top dose 10 uM
Procedure: Compounds described herein were used to modulate RNA transcript abundance in cells. The expression of a target mRNA was measured by detecting the formation of an exon-exon junction in the canonical transcript (CJ). A compound mediated exon-inclusion event was detected by observing an increase in formation of a new junction with an alternative exon (AJ). Real-time qPCR assays were used to detect these splicing switches and interrogate the potency of various compounds towards different target genes. A high-throughput real time quantitative PCR (RT-qPCR) assay was developed to measure these two isoforms of the mRNA (CJ and AJ) for an exemplary gene, HTT, together with a control housekeeping gene, GAPDH or GUSB or PPIA, used for normalization. Briefly, the A673 or K562 cell line was treated with various compounds described herein (e.g., compounds of Formula (I)). After treatment, the levels of the HTT mRNA targets were determined from each sample of cell lysate by cDNA synthesis followed by qPCR.
• Cells-to-CT 1-step kit: ThermoFisher A25602, Cells-to-CT lysis reagent: ThermoFisher 4391851C, TaqMan™ Fast Virus 1-Step Master Mix: ThermoFisher 4444436 • GAPDH: VIC-PL, ThermoFisher 4326317E (Assay: Hs99999905_m1)—used for K562/suspension cell lines • GUSB: VIC-PL, ThermoFisher 4326320E (Assay: Hs99999908_m1)—used for K562/suspension cell lines • PPIA: VIC-PL, ThermoFisher 4326316E (Assay: Hs99999904_m1) — used for A673/adherent cell lines
The A673 cell line was cultured in DMEM with 10% FBS. Cells were diluted with full growth media and plated in a 96-well plate (15,000 cells in 100 ul media per well). The plate was incubated at 37° C. with 5% CO2 for 24 hours to allow cells to adhere. An 11-point 3-fold serial dilution of the compounds was made in DMSO then diluted in media in an intermediate plate. Compounds were transferred from the intermediate plate to the cell plate with the top dose at a final concentration of 10 uM in the well. Final DMSO concentration was kept at or below 0.25%. The cell plate was returned to the incubator at 37° C. with 5% CO2 for an additional 24 hours.
The K562 cell line was cultured in IMDM with 10% FBS. For K562, cells were diluted with full growth media and plated in either a 96-well plate (50,000 cells in 50 uL media per well) or a 384-well plate (8,000-40,000 cells in 45 uL media per well). An 11-point 3-fold serial dilution of the compounds were made in DMSO then diluted in media in an intermediate plate. Compound was transferred from the intermediate plate to the cell plate with the top dose at a final concentration of 10 uM in the well. Final DMSO concentration was kept at or below 0.25%. Final volume was 100 uL for 96-well plate and 50 uL for 384-well plate. The cell plate was then placed in an incubator at 37° C. with 5% CO2 for 24 hours.
The cells were then gently washed with 50 uL-100 uL cold PBS before proceeding to addition of lysis buffer. 30 uL-50 uL of room temperature lysis buffer with DNAse I (and optionally RNAsin) was added to each well. Cells were shaken/mixed thoroughly at room temperature for 5-10 minutes for lysis to take place and then 3 uL-5 uL of room temperature stop solution was added and wells were shaken/mixed again. After 2-5 minutes, the cell lysate plate was transferred to ice for RT-qPCR reaction setup. The lysates could also be frozen at −80° C. for later use.
In some cases, a direct lysis buffer was used. An appropriate volume of 3× lysis buffer (10 mM Tris, 150 mM NaCl, 1.5%-2.5% Igepal and 0.1-1 U/uL RNAsin, pH 7.4) was directly added to either K562 or A673 cells in media and mixed by pipetting 3 times. The plates were then incubated at room temperature with shaking/rocking for 20-50 minutes to allow for lysis to take place. After this time, the cell lysate plate was transferred to ice to set up for the RT-qPCR reactions. The lysates could also be frozen at −80° C. for later use. […]

HTT CJ mRNA = assay: Gene panel canonical junction qPCR assay, HTT; details: decrease in CJ mRNA levels, gene panel; read-out: HTT IC50
Procedure: (§1) The expression of a target mRNA was measured by detecting the formation of an exon-exon junction in the canonical transcript (CJ). A compound mediated exon-inclusion event was detected by observing an increase in formation of a new junction with an alternative exon (AJ). Real-time qPCR assays were used to detect these splicing switches and interrogate the potency of various compounds towards different target genes. A high-throughput real time quantitative PCR (RT-qPCR) assay was developed to measure these two isoforms of the mRNA (CJ and AJ) for an exemplary gene, HTT, together with a control housekeeping gene, GAPDH or GUSB or PPIA, used for normalization. Briefly, the A673 or K562 cell line was treated with various compounds described herein (e.g., compounds of Formula (I)). After treatment, the levels of the HTT mRNA targets were determined from each sample of cell lysate by cDNA synthesis followed by qPCR. The A673 cell line was cultured in DMEM with 10% FBS. Cells were diluted with full growth media and plated in a 96-well plate (15,000 cells in 100 ul media per well). The plate was incubated at 37° C. with 5% CO2 for 24 hours to allow cells to adhere. An 11-point 3-fold serial dilution of the compounds was made in DMSO then diluted in media in an intermediate plate. Compounds were transferred from the intermediate plate to the cell plate with the top dose at a final concentration of 10 uM in the well. Final DMSO concentration was kept at or below 0.25%. The cell plate was returned to the incubator at 37° C. with 5% CO2 for an additional 24 hours. The K562 cell line was cultured in IMDM with 10% FBS. For K562, cells were diluted with full growth media and plated in either a 96-well plate (50,000 cells in 50 uL media per well) or a 384-well plate (8,000-40,000 cells in 45 uL media per well). An 11-point 3-fold serial dilution of the compounds were made in DMSO then diluted in media in an intermediate plate. Compound was transferred from the intermediate plate to the cell plate with the top dose at a final concentration of 10 uM in the well. Final DMSO concentration was kept at or below 0.25%. Final volume was 100 uL for 96-well plate and 50 uL for 384-well plate. The cell plate was then placed in an incubator at 37° C. with 5% CO2 for 24 hours. The cells were then gently washed with 50 uL-100 uL cold PBS before proceeding to addition of lysis buffer. 30 uL-50 uL of room temperature lysis buffer with DNAse I (and optionally RNAsin) was added to each well. Cells were shaken/mixed thoroughly at room temperature for 5-10 minutes for lysis to take place and then 3 uL-5 uL of room temperature stop solution was added and wells were shaken/mixed again. After 2-5 minutes, the cell lysate plate was transferred to ice for RT-qPCR reaction setup. The lysates could also be frozen at −80° C. for later use. In some cases, a direct lysis buffer was used. An appropriate volume of 3× lysis buffer (10 mM Tris, 150 mM NaCl, 1.5%-2.5% Igepal and 0.1-1 U/uL RNAsin, pH 7.4) was directly added to either K562 or A673 cells in media and mixed by pipetting 3 times. The plates were then incubated at room temperature with shaking/rocking for 20-50 minutes to allow for lysis to take place. After this time, the cell lysate plate was transferred to ice to set up for the RT-qPCR reactions. The lysates could also be frozen at −80° C. for later use. To set up 10 uL RT-qPCR reactions, cell lysates were transferred to 384-well qPCR plates containing the master mix according to the table below. The plates were sealed, gently vortexed, and spun down before the run. The volumes were adjusted accordingly in some instances where the reaction was carried in 20 uL. The table below summarizes the components of the RT-qPCR reactions: The RT-qPCR reaction was performed using a QuantStudio (ThermoFisher) under the following fast cycling conditions. All samples and standards were analyzed at least in duplicate.

SMN2 CJ mRNA = assay: Gene panel canonical junction qPCR assay, SMN2; details: decrease in CJ mRNA levels, gene panel; read-out: SMN2 IC50
Procedure: as §1

Target C CJ mRNA = assay: Gene panel canonical junction qPCR assay, Target C; details: decrease in CJ mRNA levels, gene panel; read-out: Target C IC50
Procedure: as §1

[1] = decrease in CJ mRNA (50% response), read-out: HTT CJ AC50
[2] = increase in AJ mRNA (50% response), read-out: HTT AJ AC50

Structure (SMILES) | AC50 (HTT mRNA; [1]) | AC50 (HTT mRNA; [2]) | IC50 (HTT CJ mRNA) | IC50 (SMN2 CJ mRNA) | IC50 (Target C CJ mRNA)
Cc1cn2cc(-c3cc(F)c4c(=O)n(C5CCNCC5)cnc4c3)cc(F)c2n1 [Compound 230, 5-fluoro-7-{8-fluoro-2-methylimidazo [1,2-a]pyridin-6-yl}-3-(piperidin-4-yl)quinazolin-4-one] | < 100 nM | < 100 nM | < 100 nM | < 100 nM | < 100 nM
Cc1cn2nc(-c3ccc4c(c3)CCN(C3CCNCC3)C4=O)cc2c(C)n1 [Compound 223] | 1000 to 10000 nM | 1000 to 10000 nM | 1000 to 10000 nM | 100 to 1000 nM | > 10000 nM
Cc1cn2nc(-c3ccc4c(c3)CCN(C3CCNC(C)(C)C3)C4=O)cc(C)c2n1 (stereo not drawn) [Compound 267] | 1000 to 10000 nM | 100 to 1000 nM | 1000 to 10000 nM | < 100 nM | 1000 to 10000 nM
CCN1CCC(N2CCc3cc(-c4cc(C)c5nc(C)cn5n4)ccc3C2=O)CC1 [Compound 270] | 1000 to 10000 nM | 1000 to 10000 nM | 1000 to 10000 nM | 100 to 1000 nM | > 10000 nM
Cc1cn2nc(-c3cc(F)c4c(=O)n(C5CCNCC5)cnc4c3)cc(C)c2n1 [Compound 243, 7-(2,8-dimethylimidazo[1,2-b]pyridazin-6-yl)-5-fluoro-3-(piperidin-4-yl)quinazolin-4(3H)-one] | < 100 nM | < 100 nM | < 100 nM | < 100 nM | < 100 nM
Cc1cn2cc(-c3ccc4c(=O)n(C5CCNC(C)(C)C5)cnc4c3)cc(F)c2n1 (stereo not drawn) [Compound 237, 3-(2,2-dimethylpiperidin-4-yl)-7-(8-fluoro-2-methylimidazo[1,2-a]pyridin-6-yl)quinazolin-4(3H)-one] | 100 to 1000 nM | 100 to 1000 nM | 100 to 1000 nM | < 100 nM | 1000 to 10000 nM
Cc1cn2nc(-c3ccc4c(=O)n(C5CCNC6(CC6)C5)ncc4c3)cc(C)c2n1 (stereo not drawn) [Compound 274] | < 100 nM | < 100 nM | < 100 nM | < 100 nM | < 100 nM
Cn1cc2cc(-c3ccc4c(c3)CCN(C3CCNCC3)C4=O)cc(F)c2n1 [Compound 225] | > 10000 nM | > 10000 nM | > 10000 nM | > 10000 nM | > 10000 nM
Cc1cc(-c2ccc3c(=O)n(N4CCN(C)CC4)cnc3c2)cc2cn(C)nc12 [Compound 175, 7-(2,7-dimethyl-2H-indazol-5-yl)-3-(4-methylpiperazin-1-yl)quinazolin-4(3H)-one] | > 10000 nM | 1000 to 10000 nM | 1000 to 10000 nM | 1000 to 10000 nM | > 10000 nM
Cn1cc2cc(-c3ccc4c(=O)n(C5CCNCC5)ncc4c3)cc(F)c2n1 [Compound 249] | 1000 to 10000 nM | 1000 to 10000 nM | 1000 to 10000 nM | 1000 to 10000 nM | 1000 to 10000 nM
CN(c1ccc2c(=O)n(-c3ccc4nn(C)cc4c3)cnc2c1)C1CCNCC1 [Compound 180, 7-(methyl(piperidin-4-yl)amino)-3-(2-methyl-2H-indazol-5-yl)quinazolin-4(3H)-one, hydrochloride] | > 10000 nM | > 10000 nM | > 10000 nM | > 10000 nM | 1000 to 10000 nM
Cc1cc(-c2ccc3nc(NC4CCN(C)CC4)[nH]c(=O)c3c2)cc2cn(C)nc12 [Compound 167] | > 10000 nM | > 10000 nM | > 10000 nM | > 10000 nM | > 10000 nM
CN1C2C=C(c3ccc4c(=O)n(-c5ccc6nn(C)cc6c5)cnc4c3)CC1CC2 (stereo not drawn) [Compound 161, 3-(2-methyl-2H-indazol-5-yl)-7-(8-methyl-8-azabicyclo[3.2.1]oct-2-en-3-yl)quinazolin-4(3H)-one] | > 10000 nM | > 10000 nM | > 10000 nM | > 10000 nM | > 10000 nM
Cc1cn2cc(-c3ccc4c(=O)n(C5CCNCC5)cnc4c3)nc2c(C)n1 [Compound 286] | 1000 to 10000 nM | 1000 to 10000 nM | 1000 to 10000 nM | 100 to 1000 nM | 1000 to 10000 nM
Cc1cc(-c2cc(F)c3c(=O)n(C4CCNCC4)cnc3c2)cc2cn(C)nc12 [Compound 232] | < 100 nM | < 100 nM | < 100 nM | < 100 nM | 100 to 1000 nM
